From patent US8450243B2, “Herbicidal quinoline and 1,8-naphthyridine compounds” (Syngenta Limited, priority 2009, dated 2013)

Key:
Type in all cases: in vivo
[1] = system: Abuthilon theophrasti (ABUTH); assay: Herbicidal glasshouse test, post-emergence; conditions: POST Application, evaluated after 13 days; for damage to plant (100=total damage to plant; 0=no damage to plant): 250 g/ha
Description: (§1) Seeds of a variety of test species were sown in standard soil in pots (Alopecurus myosuroides (ALOMY), Setaria faberi (SETFA), Echinochloa crus-galli (ECHCG), Abuthilon theophrasti (ABUTH) and Amaranthus retoflexus (AMARE)). After cultivation for one day (pre-emergence) or after 8 days cultivation (post-emergence) under controlled conditions in a glasshouse (at 24/16° C., day/night; 14 hours light; 65% humidity), the plants were sprayed with an aqueous spray solution derived from the formulation of the technical active ingredient in acetone/water (50:50) solution containing 0.5% Tween 20 (polyoxyethelyene sorbitan monolaurate, CAS RN 9005-64-5). Compounds were applied at 250 g/ha. The test plants were then grown in a glasshouse under controlled conditions in a glasshouse (at 24/16° C., day/night; 14 hours light; 65% humidity) and watered twice daily. After 13 days for pre and post-emergence, the test was evaluated (100=total damage to plant; 0=no damage to plant).

[2] = system: Alopecurus myosuroides (ALOMY); assay: Herbicidal glasshouse test, post-emergence; conditions: POST Application, evaluated after 13 days; for damage to plant (100=total damage to plant; 0=no damage to plant): 250 g/ha
Description: as §1

[3] = system: Amaranthus retoflexus (AMARE); assay: Herbicidal glasshouse test, post-emergence; conditions: POST Application, evaluated after 13 days; for damage to plant (100=total damage to plant; 0=no damage to plant): 250 g/ha
Description: as §1

[4] = system: Echinochloa crus-galli (ECHCG); assay: Herbicidal glasshouse test, post-emergence; conditions: POST Application, evaluated after 13 days; for damage to plant (100=total damage to plant; 0=no damage to plant): 250 g/ha
Description: as §1

Setaria faberi (SETFA) [5] = assay: Herbicidal glasshouse test, post-emergence; conditions: POST Application, evaluated after 13 days; for damage to plant (100=total damage to plant; 0=no damage to plant): 250 g/ha
Description: as §1

[6] = system: Abuthilon theophrasti (ABUTH); assay: Herbicidal glasshouse test, pre-emergence; conditions: PRE Application, evaluated after 13 days; for damage to plant (100=total damage to plant; 0=no damage to plant): 250 g/ha
Description: as §1

[7] = system: Alopecurus myosuroides (ALOMY); assay: Herbicidal glasshouse test, pre-emergence; conditions: PRE Application, evaluated after 13 days; for damage to plant (100=total damage to plant; 0=no damage to plant): 250 g/ha
Description: as §1

[8] = system: Amaranthus retoflexus (AMARE); assay: Herbicidal glasshouse test, pre-emergence; conditions: PRE Application, evaluated after 13 days; for damage to plant (100=total damage to plant; 0=no damage to plant): 250 g/ha
Description: as §1

[9] = system: Echinochloa crus-galli (ECHCG); assay: Herbicidal glasshouse test, pre-emergence; conditions: PRE Application, evaluated after 13 days; for damage to plant (100=total damage to plant; 0=no damage to plant): 250 g/ha
Description: as §1

Setaria faberi (SETFA) [10] = assay: Herbicidal glasshouse test, pre-emergence; conditions: PRE Application, evaluated after 13 days; for damage to plant (100=total damage to plant; 0=no damage to plant): 250 g/ha
Description: as §1

SMILES	damage to plant (100=total damage to plant; 0=no damage to plant) [1]	damage to plant (100=total damage to plant; 0=no damage to plant) [2]	damage to plant (100=total damage to plant; 0=no damage to plant) [3]	damage to plant (100=total damage to plant; 0=no damage to plant) [4]	damage to plant (100=total damage to plant; 0=no damage to plant) (Setaria faberi (SETFA) [5])	damage to plant (100=total damage to plant; 0=no damage to plant) [6]	damage to plant (100=total damage to plant; 0=no damage to plant) [7]	damage to plant (100=total damage to plant; 0=no damage to plant) [8]	damage to plant (100=total damage to plant; 0=no damage to plant) [9]	damage to plant (100=total damage to plant; 0=no damage to plant) (Setaria faberi (SETFA) [10])	pest or weed control at 250 g/ha ([1]; Abutilon theophrasti, post-emergence, 312 h, read-out: damage to plant (100=total damage to plant; 0=no damage to plant))	pest or weed control at 250 g/ha ([2]; Alopecurus myosuroides, post-emergence, 312 h, read-out: damage to plant (100=total damage to plant; 0=no damage to plant))	pest or weed control at 250 g/ha ([3]; Amaranthus retroflexus, post-emergence, 312 h, read-out: damage to plant (100=total damage to plant; 0=no damage to plant))	pest or weed control at 250 g/ha ([4]; Echinochloa crus-galli, post-emergence, 312 h, read-out: damage to plant (100=total damage to plant; 0=no damage to plant))	pest or weed control at 250 g/ha (Setaria faberi (SETFA) [5]; Setaria faberi, post-emergence, 312 h, read-out: damage to plant (100=total damage to plant; 0=no damage to plant))	pest or weed control at 250 g/ha ([6]; Abutilon theophrasti, pre-emergence, 312 h, read-out: damage to plant (100=total damage to plant; 0=no damage to plant))	pest or weed control at 250 g/ha ([7]; Alopecurus myosuroides, pre-emergence, 312 h, read-out: damage to plant (100=total damage to plant; 0=no damage to plant))	pest or weed control at 250 g/ha ([8]; Amaranthus retroflexus, pre-emergence, 312 h, read-out: damage to plant (100=total damage to plant; 0=no damage to plant))	pest or weed control at 250 g/ha ([9]; Echinochloa crus-galli, pre-emergence, 312 h, read-out: damage to plant (100=total damage to plant; 0=no damage to plant))	pest or weed control at 250 g/ha (Setaria faberi (SETFA) [10]; Setaria faberi, pre-emergence, 312 h, read-out: damage to plant (100=total damage to plant; 0=no damage to plant))
O=C1CCCC(=O)C1C(=O)c1cc2cc(F)cnc2n(-c2ccccc2Cl)c1=O [Compound 4.28]	80	70	80	80	80	100	90	50	100	100	–	–	–	–	–	–	–	–	–	–
COc1ccccc1-n1c(=O)c(C(=O)C2C(=O)CCCC2=O)cc2cc(F)cnc21 [Compound 4.33]	80	100	80	90	90	100	100	100	100	100	–	–	–	–	–	–	–	–	–	–
O=C1CCCC(=O)C1C(=O)c1cc2cc(F)cnc2n(-c2ccccc2C(F)(F)F)c1=O [Compound 4.34]	80	90	80	90	80	100	100	100	100	100	–	–	–	–	–	–	–	–	–	–
O=C1CCCC(=O)C1C(=O)c1cc2cc(F)cnc2n(-c2ccc(F)cc2F)c1=O [Compound 4.35]	80	90	90	90	80	100	90	100	100	100	–	–	–	–	–	–	–	–	–	–
O=C1CCCC(=O)C1C(=O)c1cc2cc(F)cnc2n(-c2ccccc2[N+](=O)[O-])c1=O [Compound 4.36]	–	–	–	–	–	–	–	–	–	–	80%	90%	80%	90%	80%	100%	90%	100%	100%	100%
